Measurements published in article PMC12677653, “Inhibition of Tumor Lipogenesis and Growth by Peptide‐Based Targeting of SREBP Activation” (Advanced Science, 2025).

Experiments:
[1] = target: T1, binding of PCK1 to Insig1 (Homo sapiens, UniProt P35558); assay: Immunoprecipitation of IGF1-induced PCK1-Insig1 binding, Hep3B; type: cell-based; set-up: expressed in transfected cells; details: Flag-PCK1-expressing Hep3B cells, peptide 15 μM 1 h before IGF1 100 ng/mL
T1 sequence (P35558 1-622): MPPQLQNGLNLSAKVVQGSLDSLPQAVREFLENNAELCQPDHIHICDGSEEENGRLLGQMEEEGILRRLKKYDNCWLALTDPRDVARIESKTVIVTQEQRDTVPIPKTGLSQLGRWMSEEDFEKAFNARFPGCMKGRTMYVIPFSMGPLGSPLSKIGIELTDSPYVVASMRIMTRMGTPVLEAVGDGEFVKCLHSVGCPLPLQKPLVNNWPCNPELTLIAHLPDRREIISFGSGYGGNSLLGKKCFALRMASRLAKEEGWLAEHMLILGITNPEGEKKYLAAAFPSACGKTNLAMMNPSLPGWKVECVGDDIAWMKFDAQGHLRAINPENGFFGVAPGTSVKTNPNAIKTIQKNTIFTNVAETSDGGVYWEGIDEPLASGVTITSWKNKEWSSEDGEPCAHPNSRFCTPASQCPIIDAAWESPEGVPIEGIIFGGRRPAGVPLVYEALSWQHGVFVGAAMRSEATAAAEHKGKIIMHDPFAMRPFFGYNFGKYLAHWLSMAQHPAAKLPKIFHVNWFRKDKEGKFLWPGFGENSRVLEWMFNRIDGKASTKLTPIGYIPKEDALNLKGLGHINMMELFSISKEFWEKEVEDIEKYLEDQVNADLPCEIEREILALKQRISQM
Protocol: Cellular proteins were extracted using ice‐cold lysis buffer [50 mM Tris‐HCl (pH 7.5), 150 mM NaCl, 0.1% SDS, 1% Triton X‐100, 1 mM DTT, 0.5 mM EDTA] supplemented with protease inhibitor cocktail (Roche) and phosphatase inhibitors (Bimake). Following lysis, cell extracts were centrifuged at 13400 × g for 15 min at 4 °C to remove cellular debris. The clarified supernatants were then incubated with primary antibodies overnight at 4 °C with gentle rotation. For Flag‐tagged protein immunoprecipitation, Flag M2 magnetic beads (Sigma) were added to the lysate‐antibody mixture and incubated for an additional 4 h at 4 °C. The immunocomplexes were washed three times with lysis buffer under stringent conditions (5 min per wash with rotation). Finally, the precipitated proteins were eluted and analyzed by immunoblotting as previously described.^[ [35] ^]
d) Flag-PCK1-expressing Hep3B cells were pre-treated with Insig1/2 loop 1 peptide (15 μM) for 1 h before IGF1 (100 ng ml⁻¹) stimulation.

SREBP1 = assay: Immunofluorescence of SREBP1 nuclear accumulation; type: cell-based, human; details: Huh7 cells, peptide 15 μM, IGF1 100 ng/mL 8 h
Protocol: Figure 1 The Insig1/2 loop 1 peptide binds to S90‐phosphorylated PCK1 and blocks PCK1‐mediated SREBP activation and tumor cell proliferation. Immunoblotting analyses were performed using the indicated antibodies; representative results from three independent experiments are shown (IP, immunoprecipitation; WB, western blot). a) Huh7 cells expressing various Insig1 (top) or Insig2 (bottom) truncation mutants were treated with or without IGF1 (100 ng mL^−1) for 1 h. b,c) Biolayer interferometry assays (Sartorius Octet) were employed to measure the binding affinity of Insig1/2 loop 1 peptide to GST‐PCK1 or GST‐PCK1 pS90 proteins. […] Statistical significance was determined by one‐way analysis of variance (ANOVA). g) Following pretreatment with Insig1/2 loop 1 peptide (15 µM) and IGF1 stimulation (100 ng mL^−1, 8 h), Huh7 cells were subjected to immunofluorescence analysis (scale bar: 10 µm). h) Quantitative PCR analysis of SREBP1 target gene GPAM in Huh7 cells pretreated with Insig1/2 loop 1 peptide (15 µM) and stimulated with IGF1 (100 ng mL^−1) for 10 h. […] Statistical significance was determined by one‐way analysis of variance (ANOVA). i) Quantitative PCR analysis of SREBP1 target gene FASN in Huh7 cells pretreated with Insig1/2 loop 1 peptide (15 µM) and stimulated with IGF1 (100 ng mL^−1) for 10 h. […]

## RKKRRQRRRLYPCIDSHLGEPHKFKRE [Insig1/2 loop 1 peptide]
[1]
  IGF1-induced binding of PCK1 to Insig1: markedly inhibited
SREBP1
  nuclear accumulation of SREBP1: markedly inhibited
